10 compounds from ChEMBL document CHEMBL1122514, “Studies on synthesis and anticancer activity of selected N-(2-fluoroethyl)-N-nitrosoureas” (1984) can be followed below.

Values joined by “and” are separate entries in the source; they are usually repeats but may differ in a detail not shown here. Equal values may be shown once.

Assay [1] deals with Mus musculus. Description: Number of day-60 survivors at the optimal dose of 5 mg/kg; 3/10. It counts as functional.
The test system of assay [2] is Mus musculus. Description: median survival time including day-60 survivors (MST), after post implantation at the optimal dose of 5 mg/kg. The assay is classed as functional.
The subject of assay [3] is Mus musculus. Description: Optimal percentage of increased life span [(100 x MST treated mice / MST control mice) -100] at the optimal dose of 5 mg/kg. It counts as functional.
For assay [4], the system named is Mus musculus. Description: Optimal percentage of increased life span [(100 x MST treated mice / MST control mice) -100] at the optimal dose of 10 mg/kg; d=Not Attained. The assay is classed as functional, organism-based. Also noted: dose 10 mg/kg.
The species named for assay [5] is Mus musculus. Description: optimal percentage of increased life span [(100 x MST treated mice / MST control mice) -100]. The assay is classed as functional.
The subject of assay [6] is Mus musculus. Kind of assay: Compound is evaluated for maximally tolerated dose (MTD) against intraperitoneally implanted B16 melanoma cells in mice. The assay is classed as functional.
For assay [7], the species on record is Mus musculus. Kind of assay: Optimal percentage of increased life span [(100 x MST treated mice / MST control mice) -100]; f=Not Attained. The assay is classed as functional, organism-based.
Assay [8] concerns Mus musculus. Kind of assay: Compound is evaluated for antitumor activity against intraperitoneally implanted B16 melanoma cells in mice median survival time including day-60 survivors (MST); f=Not attained. It counts as functional, organism-based.
For assay [9], the species on record is Mus musculus. Description: Number of day-60 survivors; 5/10. It counts as functional.
Assay [10] relates to Mus musculus. Description: Number of day-60 survivors at the optimal dose of 10 mg/kg; 7/10. The assay is classed as functional.
For assay [11], the species on record is Mus musculus. Description: Number of day-60 survivors; 4/10. It counts as functional.
Assay [12] has as its system Mus musculus. Kind of assay: Compound is evaluated for antitumor activity against intraperitoneally implanted B16 melanoma cells in mice median survival time including day-60 survivors (MST). The assay is classed as functional.
Assay [13] deals with Mus musculus. Description: Median survival time including day-60 survivors (MST), after post implantation at the optimal dose of 10 mg/kg; d=Not attained. It counts as functional, organism-based. Also noted: dose 10 mg/kg.
Assay [14] deals with Mus musculus. Kind of assay: Median survival time including day-60 survivors (MST), after post implantation at the optimal dose of 5 mg/kg. The assay is classed as functional.
The species named for assay [15] is Mus musculus. Kind of assay: Number of day-60 survivors; 3/10. The assay is classed as functional.
The species named for assay [16] is Mus musculus. Description: (§1) Optimal percentage of increased life span [(100 x MST treated mice / MST control mice) -100]. It counts as functional.
Assay [17] relates to Mus musculus. Description: Number of day-60 survivors at the optimal dose of 20 mg/kg; 6/10. The assay is classed as functional.
Assay [18] concerns Mus musculus. Kind of assay: Optimal percentage of increased life span [(100 x MST treated mice / MST control mice) -100] at the optimal dose of 20 mg/kg; d=Not Attained. It counts as functional, organism-based. Also noted: dose 20 mg/kg.
For assay [19], the species on record is Mus musculus. Description: Number of day-60 survivors; 0/10. The assay is classed as functional.
The subject of assay [20] is Mus musculus. Kind of assay: Median survival time including day-60 survivors (MST), after post implantation at the optimal dose of 20 mg/kg; d=Not attained. It counts as functional, organism-based. The arrangement: dose 20 mg/kg.
In assay [21] the test system is Mus musculus. Kind of assay: Optimal percentage of increased life span [(100 x MST treated mice / MST control mice) -100] at the optimal dose of 32 mg/kg. The assay is classed as functional.
Assay [22] relates to Mus musculus. Description: Number of day-60 survivors at the optimal dose of 32 mg/kg; 1/10. The assay is classed as functional.
The test system of assay [23] is Mus musculus. Description: median survival time including day-60 survivors (MST), after post implantation at the optimal dose of 32 mg/kg. The assay is classed as functional.
Assay [24] has as its system Mus musculus. Description: Optimal percentage of increased life span [(100 x MST treated mice / MST control mice) -100] at the optimal dose of 20 mg/kg. The assay is classed as functional.
Assay [25] concerns Mus musculus. Description: Number of day-60 survivors at the optimal dose of 20 mg/kg; 3/10. The assay is classed as functional.
The species entered for assay [26] is Mus musculus. Description: Number of day-60 survivors; 1/10. The assay is classed as functional.
For assay [27], the system named is Mus musculus. Description: median survival time including day-60 survivors (MST), after post implantation at the optimal dose of 20 mg/kg. The assay is classed as functional.
For assay [28], the system named is Mus musculus. Description: Number of day-60 survivors at the optimal dose of 20 mg/kg; 9/10. The assay is classed as functional.
For assay [29], the species on record is Mus musculus. Description: Number of day-60 survivors; 2/10. The assay is classed as functional.
The species named for assay [30] is Mus musculus. The assay is described as §1. The assay is classed as functional. The source holds these as a separate data set.
Assay [31] concerns Mus musculus. Kind of assay: Number of day-60 survivors at the optimal dose of 6.25 mg/kg; 9/10. It counts as functional.
Assay [32] relates to Mus musculus. Kind of assay: Optimal percentage of increased life span [(100 x MST treated mice / MST control mice) -100] at the optimal dose of 6.25 mg/kg; d=Not Attained. It counts as functional, organism-based. The arrangement: dose 6.25 mg/kg.
Assay [33] has as its system Mus musculus. Kind of assay: Median survival time including day-60 survivors (MST), after post implantation at the optimal dose of 6.25 mg/kg; d=Not attained. The assay is classed as functional, organism-based. The arrangement: dose 6.25 mg/kg.
Assay [34] relates to Mus musculus. Description: Number of day-60 survivors at the optimal dose of 8 mg/kg; 8/10. It counts as functional.
For assay [35], the system named is Mus musculus. Kind of assay: Optimal percentage of increased life span [(100 x MST treated mice / MST control mice) -100] at the optimal dose of 8 mg/kg; d=Not Attained. Also noted: dose 8 mg/kg. It counts as functional, organism-based.
For assay [36], the system named is Mus musculus. Description: median survival time including day-60 survivors (MST), after post implantation at the optimal dose of 8 mg/kg; d=Not Attained. Also noted: dose 8 mg/kg. The assay is classed as functional, organism-based.

`O=NN(CCCl)C(=O)NC1C(O)CCCC1O` (centres undefined) yielded a Survivors in the assay on Mus musculus [1] of 3. The MST with Mus musculus [2] was found to be 33.3 days. The compound further came in with an increase in life span (ILS) at 5 mg/kg in the assay on Mus musculus [3] of 73%.

Turning to `O=NN(CCF)C(=O)NC1C(O)CCCC1O` (centres undefined), the ILS result with Mus musculus [4] was “Not attained”; in the assay filed under Mus musculus [5], 163%; in the assay listed under Mus musculus [7] it was “Not attained”. The MTD with Mus musculus [6] stood at 60 mg/kg. Also, the MST result is “Not attained” in the assay on Mus musculus [8], 57 days in the assay on Mus musculus [12] and “Not attained” with Mus musculus [13]. Moreover, the Survivors in the assay listed under Mus musculus [9] is 5; in the assay on Mus musculus [10] it was 7; in the assay listed under Mus musculus [11], 4.

Take `O=NN(CCF)C(=O)NCCO`: the MST with Mus musculus [14] was 45.8 days; in the assay with Mus musculus [12] it was 50 days and 42.8 days. Further, the ILS in the assay filed under Mus musculus [5] is listed as 131%; in the assay filed under Mus musculus [16] it was 150%. The compound also returned an MTD in the assay with Mus musculus [6] of 60 mg/kg. The Survivors in the assay on Mus musculus [1] and in the assay listed under Mus musculus [15] was 3 each time. In the assay with Mus musculus [3], this compound displayed an ILS at 5 mg/kg of 138%.

`O=NN(CCF)C(=O)NC1CCCCC1O` (centres undefined) showed a maximum tolerated dose (MTD) in the assay on Mus musculus [6] of 60 mg/kg. The figures for the Survivors in the assay on Mus musculus [17], in the assay listed under Mus musculus [15] and in the assay filed under Mus musculus [19] were 6, 3 and 0, respectively. For the same compound, the ILS result is “Not attained” in the assay on Mus musculus [18]; 122% and 109% in the assay filed under Mus musculus [16]. Further, the MST result is “Not attained” in the assay on Mus musculus [20]; 48 days and 35.8 days with Mus musculus [12].

The compound `O=NN(CCCl)C(=O)NC1CCCCC1` [LOMUSTINE] gave an ILS at 32 mg/kg in the assay on Mus musculus [21] of 66%. The Survivors in the assay with Mus musculus [22] came to 1. The compound also registered an MST in the assay on Mus musculus [23] of 32 days.

Compound `O=NN(CCF)C(=O)NC1CCCCC1` came in with an increase in life span (ILS) at 20 mg/kg with Mus musculus [24] of 129%. The MTD with Mus musculus [6] was 60 mg/kg. For the same compound, the figures for the Survivors with Mus musculus [25] and in the assay filed under Mus musculus [26] were 3 and 1, respectively. In the assay filed under Mus musculus [16], the increase in life span (ILS) was found to be 71%. Moreover, the MST with Mus musculus [27] worked out at 44 days; in the assay with Mus musculus [12], 37 days.

Turning to `O=NN(CCF)C(=O)NC1CCC(=O)NC1=O` (centres undefined), the Survivors in the assay with Mus musculus [28] is recorded as 9; in the assay filed under Mus musculus [15] it was 3; in the assay listed under Mus musculus [26] it was 1. The same compound returned an MTD in the assay with Mus musculus [6] of 60 mg/kg. The ILS entry in the assay with Mus musculus [18] is “Not attained”; in the assay filed under Mus musculus [16], 109% and 133%. Also, the MST result was “Not attained” in the assay with Mus musculus [20]; 45.3 days and 40.3 days in the assay with Mus musculus [12].

In the case of `O=NN(CCF)C(=O)NC1C(O)C(O)OC(CO)C1O` (centres undefined), the maximal tolerated dose (MTD) in the assay on Mus musculus [6] turned out to be 60 mg/kg. In addition, the Survivors in the assay listed under Mus musculus [29] amounted to 2; in the assay filed under Mus musculus [15], 3. The increase in life span (ILS) in the assay filed under Mus musculus [30] is given as 131%; in the assay listed under Mus musculus [16] it was 110%. The MST in the assay on Mus musculus [12] is 50 days and 36 days.

`O=NN(CCCl)C(=O)NCCO` [ELMUSTINE] came in with a Survivors in the assay on Mus musculus [31] of 9. In addition, the ILS result in the assay on Mus musculus [32] is “Not attained”. Besides, the MST result in the assay on Mus musculus [33] is “Not attained”.

In the assay on Mus musculus [34], `O=NN(CCCl)C(=O)NC1CCC(=O)NC1=O` (centres undefined) displayed a Survivors of 8. The ILS entry with Mus musculus [35] is “Not attained”. In addition, the MST entry with Mus musculus [36] was “Not attained”.
